Source: patent EP0885869A1, “THERAPEUTIC AGENT FOR DIABETES” (Japan Tobacco Inc., priority 1996, dated 1997)
Read-outs that look alike come from different tables or passages of the source.

Legend:
fasted rats [1] = assay: Glucose tolerance test using fasted rats; format: in vivo, Male Wistar rats; settings: for inhibition in vivo at 1 mg/kg / inhibition in vivo at 10 mg/kg / inhibition in vivo at 30 mg/kg / inhibition in vivo at 100 mg/kg: Rattus norvegicus, 30 min before glucose loading (1 g/kg i.p.); for inhibition in vivo at 1 mg/kg: dose 1 mg/kg oral; for inhibition in vivo at 10 mg/kg: dose 10 mg/kg oral; for blood glucose in hyperglycemia at 30 min after glucose loading / blood glucose level 120 min later when hyperglycemia was not observed: oral administration, versus control, Fig. 1 (Example 93), Fig. 2 (Example 65, various doses); for inhibition in vivo at 30 mg/kg: dose 30 mg/kg oral; for inhibition in vivo at 100 mg/kg: dose 100 mg/kg oral
Experimental: Glucose tolerance test using fasted rats
Glucose (1 g/kg) was intraperitoneally administered and blood (0.2 ml) was taken at 30, 60 and 120 minutes later from the tail vein. […] As a control, used was carboxymethylcellulose. The suppression of increase in blood glucose was expressed by inhibition ratio (%) in the group administered with test drug, relative to the increase in blood glucose in the control group at 30 min after glucose loading, which was taken as 100%. The blood glucose after 120 min was also shown by the ratio (%) of changes relative to the control.

fasted rats [2] = assay: Effects on blood glucose level of fasted rats; format: in vivo, Male Wistar rats; settings: oral administration to rats fasted for 16 hr, blood at 30, 60 and 120 minutes; Fig. 4
Experimental: Effects on blood glucose level of fasted rats
As a control, used was carboxymethylcellulose, and blood glucose after administration of tolbutamide and the compounds of the present invention was determined.

fasted rats [3] = tested on: fasted rats
[4] = 0.5 h, inhibition of increase in blood glucose relative to control at 30 min, read-out: ratio of decrease at 30 min later(%)
[5] = 2 h, blood glucose after 120 min, ratio of changes relative to control, read-out: ratio of decrease at 120 min later(%)

| SMILES | inhibition in vivo at 1 mg/kg (fasted rats [1]; [4]) | inhibition in vivo at 10 mg/kg (fasted rats [1]; [4]) | inhibition in vivo at 1 mg/kg (fasted rats [1]; [5]) | inhibition in vivo at 10 mg/kg (fasted rats [1]; [5]) | inhibition in vivo at 30 mg/kg (fasted rats [1]; [4]) | inhibition in vivo at 30 mg/kg (fasted rats [1]; [5]) | also measured |
| --- | --- | --- | --- | --- | --- | --- | --- |
| O=C1CC(C(=O)c2ccccc2)CO1 (racemic) [Example 81, (±)-4-benzoyldihydro-2(3H)-furanone] | 23.7% | 20.7% | 1.7% | 6% | – | – | – |
| O=C1CC(C(=O)c2ccc(-c3ccccc3)cc2)CO1 (racemic) [Example 82, (±)-dihydro-4-(4'-phenylbenzoyl)-2(3H)-furanone] | 24.6% | – | -8.2% | – | – | – | – |
| CC1(C(=O)c2ccc(-c3ccccc3)cc2)CCC(=O)O1 (single isomer, unassigned; (-)) [Example 93, (-)-dihydro-5-methyl-5-(4'-phenylbenzoyl)-2(3H)-furanone] | – | – | – | – | – | – | blood glucose in hyperglycemia at 30 min after glucose loading (fasted rats [1]): significantly decreased the blood glucose; blood glucose level 120 min later when hyperglycemia was not observed (fasted rats [1]): did not unnecessarily lower the blood glucose level; fasting blood glucose (fasted rats [2]): did not lower the fasting blood glucose |
| CC(=O)CCC(=O)c1ccccc1 [Example 1, 1-phenyl-1,4-pentanedione] | – | – | – | – | 18.9% | 4.1% | inhibition in vivo at 100 mg/kg (fasted rats [1]; [4]): 14.9%; inhibition in vivo at 100 mg/kg (fasted rats [1]; [5]): 1.1% |
| CC(=O)CCC(=O)c1ccc(-c2ccccc2)cc1 [Example 2, 1-(4-biphenylyl)-1,4-pentanedione] | – | – | – | – | – | – | inhibition in vivo at 100 mg/kg (fasted rats [1]; [4]): 29.7%; inhibition in vivo at 100 mg/kg (fasted rats [1]; [5]): 3.8% |
| CC(=O)CCC(=O)C1CCCCC1 [Example 5, 1-cyclohexyl-1,4-pentanedione] | – | – | – | – | – | – | inhibition in vivo at 100 mg/kg (fasted rats [1]; [4]): 21.4%; inhibition in vivo at 100 mg/kg (fasted rats [1]; [5]): 7.3% |
| CC(=O)CCC(=O)C1(C)CCCCC1 [Example 6, 1-(1-methyl-1-cyclohexyl)-1,4-pentanedione] | – | – | – | – | – | – | inhibition in vivo at 100 mg/kg (fasted rats [1]; [4]): 19.8%; inhibition in vivo at 100 mg/kg (fasted rats [1]; [5]): 15% |
| CC(=O)CCC(=O)c1ccc(CO)cc1 [Example 20, 1-(4-hydroxymethylphenyl)-1,4-pentanedione] | – | – | – | – | 21.3% | 10.7% | – |
| O=C(O)CCC(=O)c1ccccc1 [Example 46, 4-oxo-4-phenylbutanoic acid] | 22.5% | 19.8% | 10.3% | -7% | – | – | – |
| O=C(O)CCC(=O)c1ccc(-c2ccccc2)cc1 [Example 47, 4-(4-biphenylyl)-4-oxobutanoic acid] | 26.5% | 20.7% | 14.7% | 4.7% | 29.1% | 6.8% | – |
| O=C(O)CCC(=O)c1ccc(CO)cc1 [Example 49, 4-[4-(hydroxymethyl)phenyl]-4-oxobutanoic acid] | – | 25.2% | – | 2.2% | – | – | – |
| O=C(O)CCC(=O)C1CCCCC1 [Example 58, 4-cyclohexyl-4-oxobutanoic acid] | 12.5% | 26.1% | -0.9% | 4.8% | 26.7% | -2.8% | – |
| CC1(C(=O)CCC(=O)O)CCCCC1 [Example 61, 4-(1-methylcyclohexyl)-4-oxobutanoic acid] | – | – | – | – | 31.5% | -5.7% | – |
| C[C@H]1CC[C@H](C(=O)CCC(=O)O)CC1 [Example 65, trans-4-(4-methylcyclohexyl)-4-oxobutanoic acid] | – | 31.7% | – | 5% | 41.2% | 10.5% | blood glucose in hyperglycemia at 30 min after glucose loading (fasted rats [1]): tends to show significant decrease in the blood glucose level; blood glucose level 120 min later when hyperglycemia was not observed (fasted rats [1]): does not unnecessarily lower the blood glucose level |
| O=C(CC(C(=O)O)C(=O)O)c1ccc(-c2ccccc2)cc1 [Example 69, 2-[2-(4-biphenylyl)-2-oxoethyl]propanedioic acid] | 22.1% | 24.6% | 4.9% | 3% | – | – | – |
| O=C(O)CCC(=O)c1ccc2ccccc2c1 [Example 74, 4-(2-naphthyl)-4-oxobutanoic acid] | – | 21.5% | – | -0.2% | – | – | – |
| CC(=O)NCC(=O)c1ccccc1 [Example 80, 2-acetaminoacetophenone] | 15.5% | 12.4% | -2.4% | -1.5% | – | – | – |
| CCCCNC(=O)NS(=O)(=O)c1ccc(C)cc1 [tolbutamide] | – | – | – | – | – | – | fasting blood glucose (fasted rats [2]): lowered the fasting blood glucose; effect as a therapeutic agent for diabetes for treating hyperglycemia (fasted rats [3]; oral, in the dose that does not cause hypoglycemia, Fig. 3): did not show effective results; blood glucose 120 min later (fasted rats [3]; rat, in vivo, po): induced hypoglycemia |
